From US12479847B2 (DANA-FARBER CANCER INSTITUTE, INC., priority 2019, dated 2025)

Assays:
Experiment in all cases: KINOMEscan (ScanMAX) kinase profiling
Assay type in all cases: binding
panel of 468 kinases [1] = target: T1, panel of 468 kinases (Homo sapiens, UniProt O00506); settings: YSK1; 1 μM; read-out: % control
T1 construct: purchased KINOMEscan (ScanMAX) service

panel of 468 kinases [2] = target: T2, panel of 468 kinases (Homo sapiens, UniProt P00519, Y253F); settings: ABL1(Y253F)-phosphorylated; 1 μM; read-out: % control
T2 construct: purchased KINOMEscan (ScanMAX) service

panel of 468 kinases [3] = target: T3, panel of 468 kinases (Homo sapiens, UniProt P10721, T670I/V559D); settings: KIT(V559D,T670I); 1 μM; read-out: % control
T3 construct: purchased KINOMEscan (ScanMAX) service

panel of 468 kinases [4] = target: T4, panel of 468 kinases (Homo sapiens, UniProt P11309); settings: PIM1; 1 μM; read-out: % control
T4 construct: purchased KINOMEscan (ScanMAX) service

panel of 468 kinases [5] = target: T5, panel of 468 kinases (Homo sapiens, UniProt P49760); settings: CLK2; 1 μM; read-out: % control
T5 construct: purchased KINOMEscan (ScanMAX) service

panel of 468 kinases [6] = target: T6, panel of 468 kinases (Homo sapiens, UniProt P51955); settings: NEK2; 1 μM; read-out: % control
T6 construct: purchased KINOMEscan (ScanMAX) service
T6 sequence (P51955 1-445): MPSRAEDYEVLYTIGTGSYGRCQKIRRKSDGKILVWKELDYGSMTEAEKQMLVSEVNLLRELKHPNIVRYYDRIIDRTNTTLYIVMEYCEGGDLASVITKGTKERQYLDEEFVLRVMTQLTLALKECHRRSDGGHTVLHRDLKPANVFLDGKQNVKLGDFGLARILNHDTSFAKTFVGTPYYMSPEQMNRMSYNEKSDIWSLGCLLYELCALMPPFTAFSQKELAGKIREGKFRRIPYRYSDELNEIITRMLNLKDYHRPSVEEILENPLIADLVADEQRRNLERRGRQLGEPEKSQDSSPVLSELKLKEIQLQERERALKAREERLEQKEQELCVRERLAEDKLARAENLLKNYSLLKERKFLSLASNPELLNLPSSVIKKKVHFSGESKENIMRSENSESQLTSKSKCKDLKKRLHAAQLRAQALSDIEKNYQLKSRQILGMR

panel of 468 kinases [7] = target: T7, panel of 468 kinases (Homo sapiens, UniProt P53667); settings: LIMK1; 1 μM; read-out: % control
T7 construct: purchased KINOMEscan (ScanMAX) service

panel of 468 kinases [8] = target: T8, panel of 468 kinases (Homo sapiens, UniProt P78356); settings: PIP5K2B; 1 μM; read-out: % control
T8 construct: purchased KINOMEscan (ScanMAX) service
T8 sequence (P78356 1-416): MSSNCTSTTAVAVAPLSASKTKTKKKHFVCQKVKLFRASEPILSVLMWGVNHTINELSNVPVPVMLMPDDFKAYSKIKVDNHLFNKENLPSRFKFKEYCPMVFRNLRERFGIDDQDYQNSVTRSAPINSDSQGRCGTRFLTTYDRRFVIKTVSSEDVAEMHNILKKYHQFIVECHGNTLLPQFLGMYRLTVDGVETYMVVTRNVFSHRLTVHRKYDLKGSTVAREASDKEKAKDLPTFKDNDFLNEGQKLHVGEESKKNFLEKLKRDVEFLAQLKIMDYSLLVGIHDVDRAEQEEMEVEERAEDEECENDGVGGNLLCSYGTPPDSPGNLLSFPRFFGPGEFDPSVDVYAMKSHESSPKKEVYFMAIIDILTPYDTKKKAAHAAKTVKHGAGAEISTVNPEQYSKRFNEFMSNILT

panel of 468 kinases [9] = target: T9, panel of 468 kinases (Homo sapiens, UniProt Q00537); settings: PCTK2; 1 μM; read-out: % control
T9 construct: purchased KINOMEscan (ScanMAX) service

panel of 468 kinases [10] = target: T10, panel of 468 kinases (Homo sapiens, UniProt Q52WX2); settings: SBK1; 1 μM; read-out: % control
T10 construct: purchased KINOMEscan (ScanMAX) service

panel of 468 kinases [11] = target: T11, panel of 468 kinases (Homo sapiens, UniProt Q9C098); settings: DCAMKL3; 1 μM; read-out: % control
T11 construct: purchased KINOMEscan (ScanMAX) service

panel of 468 kinases [12] = target: T12, panel of 468 kinases (Homo sapiens, UniProt Q9Y616); settings: IRAK3; 1 μM; read-out: % control
T12 construct: purchased KINOMEscan (ScanMAX) service
T12 sequence (Q9Y616 1-596): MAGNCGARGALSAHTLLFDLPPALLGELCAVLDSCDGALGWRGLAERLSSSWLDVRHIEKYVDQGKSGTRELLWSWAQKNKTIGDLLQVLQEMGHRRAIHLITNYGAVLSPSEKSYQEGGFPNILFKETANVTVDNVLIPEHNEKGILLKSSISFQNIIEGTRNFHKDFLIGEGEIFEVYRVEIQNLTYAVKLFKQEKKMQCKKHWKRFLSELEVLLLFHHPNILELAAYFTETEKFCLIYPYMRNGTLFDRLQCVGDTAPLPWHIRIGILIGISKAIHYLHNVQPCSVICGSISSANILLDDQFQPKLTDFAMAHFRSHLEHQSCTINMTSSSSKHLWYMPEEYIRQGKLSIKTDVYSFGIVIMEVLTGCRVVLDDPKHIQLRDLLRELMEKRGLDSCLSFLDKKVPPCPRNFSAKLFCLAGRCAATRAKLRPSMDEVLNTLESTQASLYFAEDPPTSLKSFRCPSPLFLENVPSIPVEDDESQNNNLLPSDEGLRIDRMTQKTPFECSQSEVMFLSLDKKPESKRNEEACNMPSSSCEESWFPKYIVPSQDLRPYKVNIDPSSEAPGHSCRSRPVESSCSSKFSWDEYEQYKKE

T9 sequence (Q00537 whole entry): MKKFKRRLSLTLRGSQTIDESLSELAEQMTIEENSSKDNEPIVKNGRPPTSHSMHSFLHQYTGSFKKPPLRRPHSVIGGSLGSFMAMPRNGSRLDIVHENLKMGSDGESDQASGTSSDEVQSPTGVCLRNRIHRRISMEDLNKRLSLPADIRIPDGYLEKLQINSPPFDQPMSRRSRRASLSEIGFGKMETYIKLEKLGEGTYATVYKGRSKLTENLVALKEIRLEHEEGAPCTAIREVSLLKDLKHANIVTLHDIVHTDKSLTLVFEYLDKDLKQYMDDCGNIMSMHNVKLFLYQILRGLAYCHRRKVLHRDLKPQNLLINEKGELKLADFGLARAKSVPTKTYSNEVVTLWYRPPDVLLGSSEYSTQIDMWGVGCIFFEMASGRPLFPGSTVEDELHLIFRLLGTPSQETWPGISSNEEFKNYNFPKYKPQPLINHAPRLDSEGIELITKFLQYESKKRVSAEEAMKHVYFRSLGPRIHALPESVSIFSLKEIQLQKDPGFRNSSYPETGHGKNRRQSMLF
T4 sequence (P11309 whole entry): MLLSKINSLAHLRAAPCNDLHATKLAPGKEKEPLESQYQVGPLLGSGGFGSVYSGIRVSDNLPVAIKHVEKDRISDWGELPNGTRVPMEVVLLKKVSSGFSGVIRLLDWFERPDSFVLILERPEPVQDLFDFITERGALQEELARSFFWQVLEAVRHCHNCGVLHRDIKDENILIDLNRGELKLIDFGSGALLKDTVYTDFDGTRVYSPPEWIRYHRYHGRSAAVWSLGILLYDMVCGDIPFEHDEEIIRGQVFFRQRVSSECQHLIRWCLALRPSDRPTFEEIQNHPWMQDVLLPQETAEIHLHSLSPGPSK
T5 sequence (P49760 whole entry): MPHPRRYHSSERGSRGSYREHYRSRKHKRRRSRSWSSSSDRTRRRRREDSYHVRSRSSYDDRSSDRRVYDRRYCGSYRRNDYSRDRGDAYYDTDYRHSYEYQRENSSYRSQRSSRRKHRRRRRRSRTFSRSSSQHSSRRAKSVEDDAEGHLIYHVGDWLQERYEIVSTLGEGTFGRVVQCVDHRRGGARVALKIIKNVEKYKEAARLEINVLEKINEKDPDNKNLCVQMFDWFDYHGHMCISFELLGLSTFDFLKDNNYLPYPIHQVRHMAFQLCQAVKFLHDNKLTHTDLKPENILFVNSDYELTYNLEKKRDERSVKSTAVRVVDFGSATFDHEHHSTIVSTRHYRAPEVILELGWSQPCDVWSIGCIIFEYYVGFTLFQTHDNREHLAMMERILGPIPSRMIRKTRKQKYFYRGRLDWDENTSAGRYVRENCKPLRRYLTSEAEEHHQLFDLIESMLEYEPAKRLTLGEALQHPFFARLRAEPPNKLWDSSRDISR
T7 sequence (P53667 whole entry): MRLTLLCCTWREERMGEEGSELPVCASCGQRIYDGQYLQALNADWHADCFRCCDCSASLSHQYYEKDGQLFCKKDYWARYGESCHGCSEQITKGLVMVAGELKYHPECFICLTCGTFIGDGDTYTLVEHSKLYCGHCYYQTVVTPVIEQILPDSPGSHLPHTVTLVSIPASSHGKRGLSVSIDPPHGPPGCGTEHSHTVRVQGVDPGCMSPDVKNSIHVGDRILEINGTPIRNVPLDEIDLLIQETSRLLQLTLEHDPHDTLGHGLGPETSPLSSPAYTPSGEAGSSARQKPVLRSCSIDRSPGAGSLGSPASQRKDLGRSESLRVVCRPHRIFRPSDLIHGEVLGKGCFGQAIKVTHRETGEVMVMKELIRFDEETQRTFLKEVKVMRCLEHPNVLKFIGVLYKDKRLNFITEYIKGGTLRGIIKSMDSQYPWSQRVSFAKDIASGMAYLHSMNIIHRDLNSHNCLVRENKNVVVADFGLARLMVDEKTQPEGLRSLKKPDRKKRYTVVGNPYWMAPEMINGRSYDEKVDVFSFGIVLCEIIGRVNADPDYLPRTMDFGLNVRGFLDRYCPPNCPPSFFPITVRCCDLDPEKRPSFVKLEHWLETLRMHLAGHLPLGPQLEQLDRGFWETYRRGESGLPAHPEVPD
T1 sequence (O00506 whole entry): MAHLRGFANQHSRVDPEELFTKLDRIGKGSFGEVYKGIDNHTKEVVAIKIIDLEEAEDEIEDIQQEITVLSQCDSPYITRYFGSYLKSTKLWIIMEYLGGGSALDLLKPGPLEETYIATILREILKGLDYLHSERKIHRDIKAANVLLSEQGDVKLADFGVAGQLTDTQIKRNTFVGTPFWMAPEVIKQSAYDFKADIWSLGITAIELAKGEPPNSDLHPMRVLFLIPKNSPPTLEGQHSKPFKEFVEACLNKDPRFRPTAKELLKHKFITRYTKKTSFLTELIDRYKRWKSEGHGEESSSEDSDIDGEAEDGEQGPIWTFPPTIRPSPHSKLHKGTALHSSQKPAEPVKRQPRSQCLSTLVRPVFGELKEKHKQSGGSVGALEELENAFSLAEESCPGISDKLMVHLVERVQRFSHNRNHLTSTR
T11 sequence (Q9C098 whole entry): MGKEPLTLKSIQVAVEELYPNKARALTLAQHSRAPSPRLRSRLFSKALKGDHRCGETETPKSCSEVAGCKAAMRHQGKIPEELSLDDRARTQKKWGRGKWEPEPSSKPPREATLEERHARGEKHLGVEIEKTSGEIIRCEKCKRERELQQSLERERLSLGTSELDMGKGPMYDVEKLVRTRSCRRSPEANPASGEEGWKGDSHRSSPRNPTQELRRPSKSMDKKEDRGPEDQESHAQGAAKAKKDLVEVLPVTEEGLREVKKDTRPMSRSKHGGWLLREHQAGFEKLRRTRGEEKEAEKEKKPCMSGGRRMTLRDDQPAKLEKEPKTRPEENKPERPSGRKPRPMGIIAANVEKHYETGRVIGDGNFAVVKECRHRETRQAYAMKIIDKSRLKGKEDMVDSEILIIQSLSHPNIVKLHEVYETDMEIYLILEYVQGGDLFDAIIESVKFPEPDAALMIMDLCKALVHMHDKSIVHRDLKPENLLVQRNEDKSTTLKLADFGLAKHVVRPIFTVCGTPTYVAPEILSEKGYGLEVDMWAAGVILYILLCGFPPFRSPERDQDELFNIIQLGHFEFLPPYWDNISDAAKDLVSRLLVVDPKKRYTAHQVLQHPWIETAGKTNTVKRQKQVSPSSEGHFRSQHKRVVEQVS
T10 sequence (Q52WX2 whole entry): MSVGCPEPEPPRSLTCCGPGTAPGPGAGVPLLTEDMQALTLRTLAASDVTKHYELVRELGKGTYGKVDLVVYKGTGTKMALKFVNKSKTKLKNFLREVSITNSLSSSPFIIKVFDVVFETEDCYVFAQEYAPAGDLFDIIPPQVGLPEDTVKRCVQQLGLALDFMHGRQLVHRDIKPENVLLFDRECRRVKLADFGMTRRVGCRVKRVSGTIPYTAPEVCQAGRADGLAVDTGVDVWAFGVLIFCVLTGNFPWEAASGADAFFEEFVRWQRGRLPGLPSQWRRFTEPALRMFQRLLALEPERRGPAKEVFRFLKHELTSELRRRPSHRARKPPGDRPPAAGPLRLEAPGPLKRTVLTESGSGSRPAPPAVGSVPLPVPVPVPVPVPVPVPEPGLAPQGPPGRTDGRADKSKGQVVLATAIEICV
T3 sequence (P10721 26-976 V559D/T670I): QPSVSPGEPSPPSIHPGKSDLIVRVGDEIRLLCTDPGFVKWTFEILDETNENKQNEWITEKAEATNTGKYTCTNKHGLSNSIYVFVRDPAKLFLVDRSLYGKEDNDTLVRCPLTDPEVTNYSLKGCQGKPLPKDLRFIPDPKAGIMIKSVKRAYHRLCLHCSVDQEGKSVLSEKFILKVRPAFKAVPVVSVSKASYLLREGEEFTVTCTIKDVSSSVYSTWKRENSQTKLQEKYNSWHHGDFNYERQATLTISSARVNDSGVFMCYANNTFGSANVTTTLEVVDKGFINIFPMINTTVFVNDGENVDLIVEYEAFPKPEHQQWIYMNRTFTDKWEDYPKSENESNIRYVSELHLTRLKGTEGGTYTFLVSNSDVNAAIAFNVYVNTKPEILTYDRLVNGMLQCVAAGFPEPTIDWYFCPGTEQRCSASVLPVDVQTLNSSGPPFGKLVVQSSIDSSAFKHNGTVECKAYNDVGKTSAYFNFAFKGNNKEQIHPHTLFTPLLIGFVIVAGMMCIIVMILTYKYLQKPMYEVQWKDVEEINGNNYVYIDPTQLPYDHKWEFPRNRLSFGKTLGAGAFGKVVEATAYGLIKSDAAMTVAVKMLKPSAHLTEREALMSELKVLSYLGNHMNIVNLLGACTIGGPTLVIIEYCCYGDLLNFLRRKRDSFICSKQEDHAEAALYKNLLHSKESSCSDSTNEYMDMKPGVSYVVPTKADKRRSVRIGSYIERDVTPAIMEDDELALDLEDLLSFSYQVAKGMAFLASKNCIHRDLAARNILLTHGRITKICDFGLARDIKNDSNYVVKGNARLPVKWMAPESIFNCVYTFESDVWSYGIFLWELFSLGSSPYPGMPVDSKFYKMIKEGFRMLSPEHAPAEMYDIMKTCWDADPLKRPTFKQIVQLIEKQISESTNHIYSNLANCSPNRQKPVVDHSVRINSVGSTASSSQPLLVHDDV

| Structure (SMILES) | remaining binding at 1 µM (panel of 468 kinases [1]) | remaining binding at 1 µM (panel of 468 kinases [2]) | remaining binding at 1 µM (panel of 468 kinases [3]) | remaining binding at 1 µM (panel of 468 kinases [4]) | remaining binding at 1 µM (panel of 468 kinases [5]) | remaining binding at 1 µM (panel of 468 kinases [6]) | remaining binding at 1 µM (panel of 468 kinases [7]) | remaining binding at 1 µM (panel of 468 kinases [8]) | remaining binding at 1 µM (panel of 468 kinases [9]) | remaining binding at 1 µM (panel of 468 kinases [10]) | remaining binding at 1 µM (panel of 468 kinases [11]) | remaining binding at 1 µM (panel of 468 kinases [12]) |
| --- | --- | --- | --- | --- | --- | --- | --- | --- | --- | --- | --- | --- |
| CNc1nc(Nc2ccc(S(=O)(=O)N3CCC(N4CCOCC4)CC3)cc2OC)nc2[nH]cc(Cl)c12 [Compound 12, 5-chloro-N2-(2-methoxy-4-((4-morpholinopiperidin-1-yl)sulfonyl)phenyl)-N4-methyl-7H-pyrrolo[2,3-d]pyrimidine-2,4-diamine] | 100% | 51% | 89% | 100% | 55% | 100% | 100% | 100% | 100% | 77% | 100% | 100% |
| CNc1nc(Nc2ccc(C(=O)N3CCC(N4CCOCC4)CC3)c3c2OCO3)nc2[nH]cc(Cl)c12 [Compound 75, (7-((5-chloro-4-(methylamino)-7H-pyrrolo[2,3-d]pyrimidin-2-yl)amino)benzo[d][1,3]dioxol-4-yl)(4-morpholinopiperidin-1-yl)methanone] | 100% | 53% | 62% | 99% | 21% | 100% | 100% | 97% | 100% | 64% | 100% | 93% |
| CNc1nc(Nc2ccc(P3(=O)CCN(C4CCOCC4)CC3)cc2OC)nc2[nH]cc(Cl)c12 [Compound 77, 4-(4-((5-chloro-4-(methylamino)-7H-pyrrolo[2,3-d]pyrimidin-2-yl)amino)-3-methoxyphenyl)-1-(tetrahydro-2H-pyran-4-yl)-1,4-azaphosphinane 4-oxide] | 100% | 53% | 100% | 100% | 28% | 100% | 100% | 100% | 100% | 68% | 100% | 94% |
